Data taken from patent US9790496B2, “Microrna compounds and methods for modulating MIR-21 activity” (Regulus Therapeutics, Inc., priority 2011, dated 2017).
Entries after “also recorded” stand apart in the source; their conditions may differ.

Tests used:
[1] = system: miR-21; assay: miR-21 luciferase sensor assay in Hela cells; assay type: cell-based
[2] = system: ischemia reperfusion injury/nephrectomy (IR/Nx) model; assay: Ischemia reperfusion injury/nephrectomy (IR/Nx) model: urinary albumin to creatinine ratio; assay type: in vivo, mouse
Description: An ischemia reperfusion injury/nephrectomy (IR/Nx) model is created in the mouse through temporary unilateral clamping of an artery in one kidney, which leads to tubule damage, inflammation, and fibrosis, followed by removal of the second kidney at a later timepoint. In this model, the acute kidney dysfunction phase is useful to test candidate agents for the treatment of acute kidney injury (i.e. up to about the first 5 days), and the later phases of kidney dysfunction are useful to model chronic fibrosis (i.e. after about the first 5 days).
Anti-miR-21 compounds were tested in the IR/Nx model. 25109, a 6-base mismatch to miR-21, was used as a control compound ([…]; where nucleosides not followed by a subscript indicate β-deoxynucleosides; nucleosides followed by a subscript “E” indicate 2′-MOE nucleosides; nucleosides followed by a subscript “S” indicate S-cEt nucleosides; and all internucleoside linkages are phosphorothioate internucleoside linkages).
Unilateral IR was induced for a period of 30 minutes. Treatment groups were as follows: sham IR procedure; IR with PBS administered subcutaneously; IR with mismatched control 25109 administered subcutaneously at a dose of 20 mg/kg; IR with anti-miR-21 compound 25070 administered subcutaneously at a dose of 20 mg/kg; and IR with anti-miR-21 compound 25923 administered subcutaneously at a dose of 20 mg/kg. PBS or anti-miR was administered on days 2, 3, 4, and 8 following IR. On day 8, the healthy kidney was removed by nephrectomy from each animal, and animals were sacrificed on day 9. Just prior to sacrifice, urine was collected by direct bladder puncture.
Urinary albumin to creatinine ratio was measured in the urine from each mouse. […] The geometric mean of the albumin to creatinine ratio in each group of mice was 16 μgAlb/mgCr (nephrectomy-only control), 127 μgAlb/mgCr (IR/Nx, PBS control), 140 μgAlb/mgCr (IR/Nx, 25109 control), 40 μgAlb/mgCr (IR/Nx, 25070), and 31 μgAlb/mgCr (IR/Nx, 25923). Blood urea nitrogen and serum creatinine levels were similar across all IR/Nx mice, and were elevated relative to nephrectomy-only control mice (data not shown).

AECSATCSAGTCSTGAUSAAGCSTAE (ACATCAGTCTGATAAGCTA; modified nucleosides coded in name, code key not given here) [Compound 25070]
luciferase value normalized to beta-galactosidase activity ([1]; 4 nM oligonucleotide, Hela cells, mock transfection 50): 99 | luciferase value normalized to beta-galactosidase activity ([1]; .16 nM oligonucleotide, Hela cells, mock transfection 45): 65 | luciferase value normalized to beta-galactosidase activity ([1]; .8 nM oligonucleotide, Hela cells, mock transfection 33): 87 | inhibition of miR-21 in the luciferase assay (in words) ([1]; Hela cells): demonstrated inhibition of miR-21 in a dose-dependent manner; also recorded: potent inhibitor of miR-21 activity | fold change in luciferase value relative to the mock treatment ([1]; concentration of anti-miR compound 0.2 (unit not given)): 1.04 | fold change in luciferase value relative to the mock treatment ([1]; concentration of anti-miR compound 0.6 (unit not given)): 1.01 | fold change in luciferase value relative to the mock treatment ([1]; concentration of anti-miR compound 1.9 (unit not given)): 1.14 | fold change in luciferase value relative to the mock treatment ([1]; concentration of anti-miR compound 5.6 (unit not given)): 6.22 | fold change in luciferase value relative to the mock treatment ([1]; concentration of anti-miR compound 16.7 (unit not given)): 11.28 | fold change in luciferase value relative to the mock treatment ([1]; concentration of anti-miR compound 50.0 (unit not given)): 11.00 | reduction in urinary albumin to creatinine ratio (in words) ([2]; s.c. 20 mg/kg on days 2, 3, 4, 8): statistically significant reductions | geometric mean of the urinary albumin to creatinine ratio ([2]; s.c. 20 mg/kg on days 2, 3, 4, 8, urine day 9, PBS control 127, nephrectomy-only 16): 40 μgAlb/mgCr
